From ChEMBL document CHEMBL5226361, “Marine Sponge-Derived Alkaloid Induces Mitochondrial Dysfunction and Inhibits the PI3K/AKT/mTOR Signaling Pathway against Burkitt's Lymphoma” (J Nat Prod, 2023)
Activity calls are given as the source filed them. No cut-off for these calls is given here.

Legend:
Daudi [1] = test: Antiproliferative activity against human Daudi cells assessed as inhibition of cell growth incubated for 48 hrs by CCK-8 assay; assay type: functional, cell-based
Daudi [2] = test: Induction of cell cycle arrest at G0/G1 phase in human Daudi cells assessed as downregulation of CDK2 protein expression at 0.75 to 3 uM incubated for 24 to 48 hrs by Western blot analysis; assay type: functional, cell-based; settings: dose 0.75-3 µM, time 24-48 hrs
Daudi [3] = test: Induction of cell cycle arrest at G0/G1 phase in human Daudi cells assessed as downregulation of Cyclin E1 protein expression at 0.75 to 3 uM incubated for 24 to 48 hrs by Western blot analysis; assay type: functional, cell-based; settings: dose 0.75-3 µM, time 24-48 hrs
Daudi [4] = test: Induction of cell cycle arrest at G0/G1 phase in human Daudi cells assessed as upregulation of p21 protein expression at 0.75 to 3 uM incubated for 24 to 48 hrs by Western blot analysis; assay type: functional, cell-based; settings: dose 0.75-3 µM, time 24-48 hrs
Raji [5] = test: Induction of cell cycle arrest at G0/G1 phase in human Raji cells assessed as downregulation of CDK2 protein expression at 1.25 to 5 uM incubated for 24 to 48 hrs by Western blot analysis; assay type: functional, cell-based; settings: dose 1.25-5 µM, time 24-48 hrs
Raji [6] = test: Induction of cell cycle arrest at G0/G1 phase in human Raji cells assessed as downregulation of CyclinE1 protein expression at 1.25 to 5 uM incubated for 24 to 48 hrs by Western blot analysis; assay type: functional, cell-based; settings: dose 1.25-5 µM, time 24-48 hrs
Raji [7] = test: Induction of cell cycle arrest at G0/G1 phase in human Raji cells assessed as upregulation of p21 protein expression at 1.25 to 5 uM incubated for 24 to 48 hrs by Western blot analysis; assay type: functional, cell-based; settings: dose 1.25-5 µM, time 24-48 hrs
Raji [8] = test: Induction of apoptosis in human Raji cells assessed as total apoptotic cells at 5 uM incubated for 48 hrs by Annexin-V/PI staining based flow cytometric analysis relative to control; assay type: functional
Daudi [9] = test: Induction of cell cycle arrest in human Daudi cells assessed as G2 phase cells at 3 uM incubated for 24 hrs by PI staining based flow cytometry analysis (reference value: 25.92%); assay type: functional
Daudi [10] = test: Induction of cell cycle arrest in human Daudi cells assessed as S phase cells at 3 uM incubated for 24 hrs by PI staining based flow cytometry analysis (reference value: 49.79%); assay type: functional
Daudi [11] = test: Induction of apoptosis in human Daudi cells assessed as downregulation of Mcl-1 expression at 0.75 to 3 uM incubated for 24 hrs by Western blot analysis; assay type: functional, cell-based; settings: dose 0.75-3 µM
Daudi [12] = test: Induction of apoptosis in human Daudi cells assessed as effect on caspase-8 protein expression at 0.75 to 3 uM incubated for 24 hrs by Western blot analysis; assay type: functional, cell-based; settings: dose 0.75-3 µM
Raji [13] = test: Induction of apoptosis in human Raji cells assessed as upregulation of cleaved caspase-9 expression at 1.25 to 5 uM incubated for 24 hrs by Western blot analysis; assay type: functional, cell-based; settings: dose 1.25-5 µM
Raji [14] = test: Induction of apoptosis in human Raji cells assessed as upregulation of cleaved PARP expression at 1.25 to 5 uM incubated for 24 hrs by Western blot analysis; assay type: functional, cell-based; settings: dose 1.25-5 µM
Raji [15] = test: Induction of apoptosis in human Raji cells assessed as downregulation of BCL-XL expression at 1.25 to 5 uM incubated for 24 hrs by Western blot analysis; assay type: functional, cell-based; settings: dose 1.25-5 µM
Raji [16] = test: Induction of apoptosis in human Raji cells assessed as effect on Bax protein expression at 1.25 to 5 uM incubated for 24 hrs by Western blot analysis; assay type: functional, cell-based; settings: dose 1.25-5 µM
Raji [17] = test: Induction of apoptosis in human Raji cells assessed as effect on caspase-8 protein expression at 1.25 to 5 uM incubated for 24 hrs by Western blot analysis; assay type: functional, cell-based; settings: dose 1.25-5 µM
Raji [18] = test: Induction of apoptosis in human Raji cells assessed as effect on cleaved caspase-8 protein expression at 1.25 to 5 uM incubated for 24 hrs by Western blot analysis; assay type: functional, cell-based; settings: dose 1.25-5 µM
Raji [19] = test: Induction of apoptosis in human Raji cells assessed as nuclear condensation incubated for 48 hrs by Hoechst 33258/PI staining based fluorescence microscopic analysis; assay type: functional, cell-based; settings: dose 1.25-5 µM
Raji [20] = test: Induction of apoptosis in human Raji cells assessed as nuclear fragmentation incubated for 48 hrs by Hoechst 33258/PI staining based fluorescence microscopic analysis; assay type: functional, cell-based; settings: dose 1.25-5 µM
Daudi [21] = test: Induction of mitochondrial oxidative damage in human Daudi cells assessed as increase in intracellular mitochondrial superoxide generation at 3 uM incubated for 1 to 6 hrs by MitoSOX red dye based flow cytometric analysis; assay type: functional, cell-based; settings: time 1-6 hrs
Daudi [22] = test: Induction of mitochondrial dysfunction in human Daudi cells assessed as decrease in ATP-5J protein expression at 1.5 to 3 uM incubated for 48 hrs by Western blot analysis; assay type: functional, cell-based; settings: dose 1.5-3 µM
Raji [23] = test: Induction of mitochondrial dysfunction in human Raji cells assessed as decrease in ATP-5J protein expression at 2.5 to 5 uM incubated for 48 hrs by Western blot analysis; assay type: functional, cell-based; settings: dose 2.5-5 µM
Daudi [24] = test: Induction of mitochondrial respiratory chain damage in human Daudi cells assessed as decrease in SDHA protein expression at 1.5 to 3 uM incubated for 48 hrs by Western blot analysis; assay type: functional, cell-based; settings: dose 1.5-3 µM
Raji [25] = test: Induction of mitochondrial respiratory chain damage in human Raji cells assessed as decrease in NDUFV2 protein expression at 2.5 to 5 uM incubated for 48 hrs by Western blot analysis; assay type: functional, cell-based; settings: dose 2.5-5 µM
[26] = Inhibition of PI3K/AKT/mTOR signalling pathway in human Daudi cells assessed as inhibition of AKT phosphorylation at […] residue incubated for 24 hrs by Western blot analysis; assay type: cell-based; settings: dose 0.75-3 µM
Raji [27] = test: Effect on total AKT protein level in human Raji cells at 1.25 to 5 uM incubated for 24 hrs by Western blot analysis; assay type: functional, cell-based; settings: dose 1.25-5 µM
[28] = Inhibition of PI3K/AKT/mTOR signalling pathway in human Raji cells assessed as inhibition of PI3K phosphorylation incubated for 24 hrs by Western blot analysis; assay type: cell-based; settings: dose 1.25-5 µM
[29] = Inhibition of PI3K/AKT/mTOR signalling pathway in human Raji cells assessed as inhibition of mTOR phosphorylation incubated for 24 hrs by Western blot analysis; assay type: cell-based; settings: dose 1.25-5 µM
Raji [30] = test: Downregulation of c-Myc expression level in human Raji cells incubated for 24 hrs by Western blot analysis; assay type: functional, cell-based; settings: dose 1.25-5 µM
[31] = Inhibition of PI3K/AKT/mTOR signalling pathway in human Daudi cells assessed as increase in ratio of AKT phosphorylation at […] residue to total AKT protein level at 3 uM incubated for 12 hrs in the presence of YS49 by Western blot analysis; assay type: cell-based
[32] = Inhibition of PI3K/AKT/mTOR signalling pathway in human Daudi cells assessed as increase in ratio of mTOR phosphorylation to total mTOR protein level at 3 uM incubated for 12 hrs in the presence of YS49 by Western blot analysis; assay type: cell-based
[33] = Inhibition of PI3K/AKT/mTOR signalling pathway in human Raji cells assessed as increase in ratio of AKT phosphorylation at […] residue to total AKT protein level at 5 uM incubated for 12 hrs in the presence of YS49 by Western blot analysis; assay type: cell-based
Raji [34] = test: Induction of apoptosis in human Raji cells assessed as early apoptotic cells at 5 uM incubated for 24 hrs in the presence of YS49 by Annexin V-FITC/PI staining based flow cytometric analysis (reference value: 0.8%); assay type: functional
Raji [35] = test: Induction of apoptosis in human Raji cells assessed as necrotic cells at 5 uM incubated for 24 hrs in the presence of YS49 by Annexin V-FITC/PI staining based flow cytometric analysis (reference value: 1.5%); assay type: functional

- IC50 (Daudi [1]): 3.48 µM
Compound: COc1c(OC)c2c3c(nccc3c1-c1cc(C)cc(C)c1)C(c1cc(C)cc(C)c1)=CN2
- Activity (Daudi [2]): Active
- Activity (Daudi [3]): Active
- Activity (Daudi [4]): Active
- Activity (Raji [5]): Active
- Activity (Raji [6]): Active
- Activity (Raji [7]): Active
- Activity (Raji [8]): 25.8%
- Activity (Daudi [9]): 20.27%
- Activity (Daudi [10]): 30.03%
- Activity (Daudi [11]): Active
- Activity (Daudi [12]): inactive
- Activity (Raji [13]): Active
- Activity (Raji [14]): Active
- Activity (Raji [15]): Active
- Activity (Raji [16]): inactive
- Activity (Raji [17]): inactive
- Activity (Raji [18]): inactive
- Activity (Raji [19]): Dose-Dependent Effect
- Activity (Raji [20]): Dose-Dependent Effect
- Activity (Daudi [21]): Active
- Activity (Daudi [22]): Active
- Activity (Raji [23]): Active
- Activity (Daudi [24]): Active
- Activity (Raji [25]): Active
- inhibition [26]: Dose-Dependent Effect
- Activity (Raji [27]): inactive
- inhibition [28]: Dose-Dependent Effect
- inhibition [29]: Dose-Dependent Effect
- Activity (Raji [30]): Dose-Dependent Effect
- inhibition [31]: inactive
- inhibition [32]: inactive
- inhibition [33]: inactive
- Activity (Raji [34]): 11.2%
- Activity (Raji [35]): 20.8%
